Measurements from publication PMC4604124, “In Vitro Characterization of the Pharmacological Properties of the Anti-Cancer Chelator, Bp4eT, and Its Phase I Metabolites” (PLoS ONE, 2015).
Where “and” joins values, the source holds several entries; their conditions need not be identical. Equal entries are not always repeated. Where two headings read alike, the source gives them in different places.

Experiments:
H9c2 cardiomyoblasts = assay: MTT cytotoxicity assay, H9c2 cells; assay type: cell-based, rat; details: for IC50: MTT; for MTT, relative to control (0 = 100): H9c2
Outline: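 72 h/37°C exposure, 0.1% DMSO. Plating: MCF-7 5,000; HCT116, A549 2,000; H9c2 10,000 cells/well, H9c2 switched to serum/pyruvate-free DMEM 24 h. MTT OD 570 nm, 690 nm background subtracted. Viability as % untreated control; IC50 derived.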

[1] = system: 3T3 mouse embryo fibroblasts; assay: MTT cytotoxicity assay, 3T3 cells; assay type: cell-based; details: for MTT, relative to control (0 = 100): 3T3, 10 000 b/j
Outline: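 Non-cancerous 3T3 mouse embryo fibroblasts were plated at 10,000 cells/well in 96-well plates and cultured for 24 h/37°C. The medium was then replaced with serum- and pyruvate-free DMEM for a further 24 h/37°C. Cells were exposed to agents for 72 h/37°C with 0.1% DMSO present, and viability was measured by MTT.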

[2] = Ascorbate oxidation assay (redox activity of iron complexes); assay type: biochemical;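 as to %Fe 30min: ascorbate oxidation as % of the Fe control (Fe 100%): IBE 0.1 means iron-binding equivalents with iron in excess over chelator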

Compound: CCNC(=O)NN=C(c1ccccc1)c1ccccn1 [Z-Bp4eS, 2-benzoylpyridine 4-ethylsemicarbazone]
- IC50 (H9c2 cardiomyoblasts; H9c2, 72 h/37°C, mean ± SD, n ≥ 4, read-out: IC50): 343 ± 95.1 µM
- MTT, relative to control (0 = 100) (H9c2 cardiomyoblasts; 10 000 b/j, 1 μM, průměr (mean), sheet Z-Bp4eS): 99.81
- MTT, relative to control (0 = 100) (H9c2 cardiomyoblasts; 10 000 b/j, 1 μM, single experiment (date), sheet Z-Bp4eS): 102.371 and 103.08 and 95.5416 and 98.2281
- MTT, relative to control (0 = 100) (H9c2 cardiomyoblasts; 10 000 b/j, 3 μM, průměr (mean), sheet Z-Bp4eS): 93.78
- MTT, relative to control (0 = 100) (H9c2 cardiomyoblasts; 10 000 b/j, 3 μM, single experiment (date), sheet Z-Bp4eS): 92.602 and 95.2542 and 92.4159 and 94.8358
- MTT, relative to control (0 = 100) (H9c2 cardiomyoblasts; 10 000 b/j, 10 μM, průměr (mean), sheet Z-Bp4eS): 89.06
- MTT, relative to control (0 = 100) (H9c2 cardiomyoblasts; 10 000 b/j, 10 μM, single experiment (date), sheet Z-Bp4eS): 88.6483 and 89.659 and 90.3674 and 87.5524
- MTT, relative to control (0 = 100) (H9c2 cardiomyoblasts; 10 000 b/j, 30 μM, průměr (mean), sheet Z-Bp4eS): 76.27
- MTT, relative to control (0 = 100) (H9c2 cardiomyoblasts; 10 000 b/j, 30 μM, single experiment (date), sheet Z-Bp4eS): 77.9281 and 80.0605 and 74.6409 and 72.4521
- MTT, relative to control (0 = 100) (H9c2 cardiomyoblasts; 10 000 b/j, 100 μM, průměr (mean), sheet Z-Bp4eS): 56.31
- MTT, relative to control (0 = 100) (H9c2 cardiomyoblasts; 10 000 b/j, 100 μM, single experiment (date), sheet Z-Bp4eS): 59.4912 and 57.2744 and 57.5228 and 50.9483
- MTT, relative to control (0 = 100) (H9c2 cardiomyoblasts; 10 000 b/j, 300 μM, průměr (mean), sheet Z-Bp4eS): 53.60
- MTT, relative to control (0 = 100) (H9c2 cardiomyoblasts; 10 000 b/j, 300 μM, single experiment (date), sheet Z-Bp4eS): 52.3885 and 58.4831 and 53.7777 and 49.7549
- MTT, relative to control (0 = 100) (H9c2 cardiomyoblasts; 10 000 b/j, 1000 μM, průměr (mean), sheet Z-Bp4eS): 39.75
- MTT, relative to control (0 = 100) (H9c2 cardiomyoblasts; 10 000 b/j, 1000 μM, single experiment (date), sheet Z-Bp4eS): 41.1185 and 45.5292 and 39.9014 and 32.4603
- IC50 (H9c2 cardiomyoblasts; Rattus norvegicus, H9c2, H9c2, 10 000 b/j, průměr (mean), sheet Z-Bp4eS, read-out: IC50 měřené): 343 µM
- IC50 ([1]; 3T3, 72 h/37°C, MTT, mean ± SD, n ≥ 4, read-out: IC50): > 1000 µM
- MTT, relative to control (0 = 100) ([1]; 1 μM, průměr (mean)): 99.81
- MTT, relative to control (0 = 100) ([1]; 1 μM, single experiment (date)): 90.4217 and 112.179 and 103.613 and 93.692 and 99.1404
- MTT, relative to control (0 = 100) ([1]; 3 μM, průměr (mean)): 93.98
- MTT, relative to control (0 = 100) ([1]; 3 μM, single experiment (date)): 89.9896 and 95.9618 and 102.444 and 92.291 and 89.1987
- MTT, relative to control (0 = 100) ([1]; 10 μM, průměr (mean)): 93.85
- MTT, relative to control (0 = 100) ([1]; 10 μM, single experiment (date)): 91.4468 and 99.0627 and 95.1304 and 94.2734 and 89.336
- MTT, relative to control (0 = 100) ([1]; 30 μM, průměr (mean)): 90.21
- MTT, relative to control (0 = 100) ([1]; 30 μM, single experiment (date)): 100.856 and 90.0957 and 87.8236 and 82.0687
- MTT, relative to control (0 = 100) ([1]; 100 μM, průměr (mean)): 73.57
- MTT, relative to control (0 = 100) ([1]; 100 μM, single experiment (date)): 81.8752 and 74.6133 and 74.3643 and 63.4281
- MTT, relative to control (0 = 100) ([1]; 300 μM, průměr (mean)): 72.55
- MTT, relative to control (0 = 100) ([1]; 300 μM, single experiment (date)): 79.104 and 69.1035 and 70.1959 and 71.7888
- MTT, relative to control (0 = 100) ([1]; 1000 μM, průměr (mean)): 63.36
- MTT, relative to control (0 = 100) ([1]; 1000 μM, single experiment (date)): 73.2159 and 60.5042 and 61.05 and 58.6559
- %Fe 30min: ascorbate oxidation as % of the Fe control (Fe 100%) ([2]; IBE 0.1, 30 min, mean (průměr)): 99.02%
- Change of absorbance after subtraction of time 0 (odečet 0) ([2]; IBE 0.1, time 10, mean (průměr)): -0.03387
- Change of absorbance after subtraction of time 0 (odečet 0) ([2]; IBE 0.1, time 20, mean (průměr)): -0.06534
- Change of absorbance after subtraction of time 0 (odečet 0) ([2]; IBE 0.1, time 30, mean (průměr)): -0.09415
- Absorbance (ascorbate, λ = 265 nm) ([2]; IBE 0.1, čas 0 (time 0), mean (průměr)): 0.7817
- Absorbance (ascorbate, λ = 265 nm) ([2]; IBE 0.1, čas 10 (time 10), mean (průměr)): 0.7478
- Absorbance (ascorbate, λ = 265 nm) ([2]; IBE 0.1, čas 20 (time 20), mean (průměr)): 0.7164
- Absorbance (ascorbate, λ = 265 nm) ([2]; IBE 0.1, čas 30 (time 30), mean (průměr)): 0.6875
